The text below walks through data of patent publication US10550094B2, “Compounds having antioxidant activity against free radicals and anti-inflammatory activity, and corresponding pharmaceutical or cosmetic compositions for skin care” (GIULIANI S.P.A., priority 2015, dated 2020).

The subject of one assay is fillagrin (FLG). As to the kind of experiment: Skin barrier function protection: filaggrin (FLG) gene expression by qRT-PCR in LPS-treated keratinocytes. It counts as cell-based, human. To be noted: 13.5 μM, with LPS, Control + LPS = 1.000. The protocol: (§1) The immortalized line of human keratinocytes NCTC2544 is used (Perry V. P. et al., 1957), cultured in sterile flasks ([…]), incubated at 37° C. in a humid atmosphere at 5% CO2 in RPMI culture medium added with bovine fetal serum (FBS), 2 mm glutamine, 1% non-essential amino acids, in the presence of 1% penicillin and streptomycin. The 1:3 split is done every 2 days upon achieving the monolayer by washing with 1×PBS (phosphate buffer without Ca^2+ and Mg^2+) and detachment of cells with a trypsin-EDTA solution at 37° C. for 2 minutes. The cells were kept in culture in 25 cm^3 sterile flasks and incubated at 37° C. in a humid atmosphere at 5% CO2.
(§2) Negative control: untreated cells in RPMI medium added to 2.5% fetal bovine serum (FBS), 1% non-essential amino acids (NEAA), 1% of a penicillin and streptomycin mixture (Pen-Strep Mix), and kept in (12 well) 25 cm^2 culture plates at 37° C. and 5% CO2.
(§3) Positive control: cells in RPMI medium added to 2.5% fetal bovine serum (FBS), 1% non-essential amino acids (NEAA), 1% of a penicillin and streptomycin mixture (Pen-Strep Mix) and 10 μg/mL LPS (lipopolysaccharide) and kept in ([…]) 25 cm^2 culture plates at 37° C. and 5% CO2 (in the dark).
(§4) Study of the Skin Barrier Function Protection
(§5) The gene expression of the involucrin (IVL) and fillagrin (FLG) markers was evaluated by relative quantitative RT-PCR (quantitative reverse transcription-polymerase chain reaction-qRT-PCR).
(§6) This assay involved three sequential steps: • extraction of total RNA; • retrotranscription in cDNA; • qRT-PCR.
(§7) Human keratinocytes NCTC2544 were seeded in 12-well plates at the density of 0.5*10^6 cells/well and incubated until reaching about 80% confluence.
(§8) Then, the cells were incubated for 16 and 24 hours with the active compounds to be tested and the respective controls at the following concentrations: 13.5 and 27 μM, and admixed (in the well) with 10 μg/ml LPS.
(§9) The dilutions were prepared starting from 1000× stock in DMSO, sterile-filtered and using RPMI medium added to 2.5% fetal bovine serum (FBS), 1% non-essential amino acids (NEAA), 1% of a penicillin and streptomycin mixture (Pen-Strep Mix).
(§10) Cells kept in the culture medium alone (RPMI 2.5% FBS) were used as a negative control.
(§11) Cells in the culture medium alone (RPMI 2.5% FBS) and treated only with 10 μg/mL LPS were used as a positive control.
(§12) After incubation, the RNA was extracted. Total RNA was extracted from NCTC 2544 cells using the commercial kit Ribospin™ (GeneAllBiotechnology Co., LTD).
(§13) For RT-PCR amplification, the TaqMan® probe (AppliedBiosystems) method was used. The following TYaqMan probe was used: Hs00846307_s1 (IVL) and Hs00863478_g1 (FLG).
(§14) GAPDH: Hs99999905_m1 was used as control gene (housekeeping).
(§15) The data obtained were analyzed according to the method of 2-ΔΔCt and so it was possible to calculate the relative values of expression of the gene of interest, normalized compared to the housekeeping gene and calibrated on the control sample (untreated cells): ΔΔCt=ΔCttarget-housekeeping (control)−ΔCttarget-housekeeping (treated cells)
(§16) The 2^−ΔΔCt was calculated assuming an amplification efficiency of 100%.
In general terms: Real-time PCR tracks product formation cycle by cycle.

Another assay relates to TNF-α. As to the kind of experiment: Anti-inflammatory activity: TNF-α gene expression by qRT-PCR in LPS-treated keratinocytes. It counts as cell-based, human. The settings on record: for TNF-α (relative gene expression): 10 μg/ml LPS, NCTC 2544; for Comparison vs LFS (%): TNF-α vs Control + LPS. The method, then:
as §1, §2, §3
Study of the Anti-inflammatory Activity-NCTC 2544
The gene expression of the TNF-α inflammation marker was evaluated by relative quantitative RT-PCR (quantitative reverse transcription-polymerase chain reaction-qRT-PCR).
as §6
Human keratinocytes NCTC 2544 were seeded in 12-well plates at the density of […] cells/well and incubated until reaching about 80% confluence.
Then, the cells were incubated for 16 and 24 hours with the compounds of the invention to be tested and the respective controls at the following concentrations: 13.5 μM and 27 μM, and admixed (in the well) with 10 μg/ml LPS.
as §9, §10, §11, §12
At the end of incubation with the active compounds of the invention, cells were washed with PBS (1×) and finally subjected to RNA extraction procedure. At the end of the extraction, using a spectrophotometer (Jenway UV/VIS MOD: 6715, BS-6715B0), concentrations were calculated in μg/mL of total RNA extracted at a wavelength of 260 nm.
For RT-PCR amplification, the TaqMan® probe (AppliedBiosystems) method was used. The following TYaqMan probe was used: Hs00174128_m1 (TNF-α). GAPDH: Hs99999905_m1 was used as control gene (housekeeping).
The data obtained were analyzed according to the method of 2-ΔΔCt and so it was possible to calculate the relative values of expression of the gene of interest, normalized compared to the housekeeping gene and calibrated on the control sample (untreated cells): ΔCt=ΔCttarget-housekeeping (control)−ΔCttarget-housekeeping (treated cells)
as §16

Another assay deals with involucrin (IVL). Put plainly: Skin barrier function protection: involucrin (IVL) gene expression by qRT-PCR in LPS-treated keratinocytes. Format: cell-based, human. To be noted: 13.5 μM, with LPS, Control + LPS = 1.000. The method, then: as §1, §2, §3, §4, §5, §6, §7, §8, §9, §10, §11, §12, §13, §14, §15, §16
Assay [1] in a line: HORAC Hydroxyl radical antioxidant capacity assay. The source says:
HORAC Assay: Hydroxyl Antioxidant Capacity In Vitro
The commercial kit “Oxiselect Hydroxyl Radical Antioxidant Capacity (HORAC) activity assay” (Cell Biolabs).
The HORAC assay esxpresses the compound antiradical capacity towards the hydroxyl radical OH′ and is based on the oxidation of a fluorescent probe by hydroxyl radicals through a hydrogen transfer process (HAT). Hydroxyl radicals are produced by a radical initiator hydroxyl and by Fenton's reagent, which quenches the fluorescent probe over time. The antioxidants present in the sample block the oxidation by the hydroxyl radical of the fluorescent probe until the antioxidant activity in the sample runs out. The remaining hydroxyl radicals destroy the fluorescence of the fluorescent probe. The antioxidant capacity of the sample is related to the fluorescence decay curve, which usually is represented as the area under the curve (AUC). The AUC is used to quantify the total antioxidant activity of the hydroxyl radical in a sample and is compared to the curve of an antioxidant standard.
The compounds of the invention were tested at the following concentrations: 13.5 μM; 27 μM, 13.5 mM; 27 mM.
For comparison purposes, also samples of the compound monofurfurylidene-2.4-sorbitol defined below by the acronym ARGB11, were in this case tested under the same two concentrations, as a reference compound according to EP0345362 mentioned above as the background art of substances with free radical inhibition activity.

In the case of `OCC1OC(c2ccco2)OC(CO)C1O` (centres unmarked) [Xylitil furfural, xylitil furfural], the “(FLG) 16 h RQ ± SEM” value with fillagrin (FLG) is given as 64.669 ± 6.930. For the same compound, the “TNF-α (relative gene expression)” value with TNF-α (13.5 μM, 16 h) is 0.03; with TNF-α (13.5 μM, 24 h) it was 0.03; in the assay with TNF-α (27 μM, 16 h), 0.18; in the assay with TNF-α (27 μM, 24 h) it was 0.18. Moreover, the “Comparison vs LFS (%)” value in the assay with TNF-α (13.5 μM, 16 h) is on record as 98.96%; in the assay with TNF-α (13.5 μM, 24 h) it was 99.85%; in the assay on TNF-α (27 μM, 16 h) it was 94.37%; with TNF-α (27 μM, 24 h) it was 99.10%. Further, the “anti-inflammatory activity (TNF-α), assessment in words” value in the assay on TNF-α (lower dose) is “remarkable”. Moreover, the “(IVL) 16 h RQ ± SEM” value in the assay on involucrin (IVL) was found to be 60.653 ± 14.549. Further, the “HORAC (Hydroxyl Radical Antioxidant Capacity)” value was 418.69 μMole GAE/L in assay [1] (13.5 μM), 524.692 μMole GAE/L in assay [1] (27 μM), 897.479 μMole GAE/L in assay [1] (13.5 mM) and 1242.582 μMole GAE/L in assay [1] (27 mM). Also, the “HORAC activity compared with reference ARGB11” value in assay [1] (higher dosages (13.5 μM and 27 μM)) is given as “higher activity than the selected reference ARGB11”; in assay [1] (lower concentrations 13.5 μM and 27 μM) it was “higher than the selected reference ARGB11”.
